Test results published in ChEMBL document CHEMBL1201862, “PubChem BioAssay data set” (2004).
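1) Cells in 96-well plates. 2) Compound, 48 h, 5 concentrations. 3) Linear interpolation between surrounding doses. 4) Unreached endpoint = highest concentration. Abbreviation: GI50, concentration required for 50% inhibition of growth.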 Calls of active or inactive are those of the source. Cut-off read from the data, not from the text of the source: active = GI50 up to about 1.1 µM and inactive = higher.

Columns and labels:
Experiment in all cases: NCI-60 cell line screen, 48 h
UO-31 = tested on: UO-31
TK-10 = tested on: TK-10
CCRF-CEM = tested on: CCRF-CEM
786-0 = tested on: 786-0
SF-268 = tested on: SF-268
HOP-62 = tested on: HOP-62
HCT-116 = tested on: HCT-116
OVCAR-8 = tested on: OVCAR-8
ACHN = tested on: ACHN
T47D = tested on: T47D
A549 = tested on: A549
UACC-257 = tested on: UACC-257
COLO 205 = tested on: COLO 205
EKVX = tested on: EKVX
OVCAR-3 = tested on: OVCAR-3
UACC-62 = tested on: UACC-62
KM12 = tested on: KM12
SNB-75 = tested on: SNB-75
SK-MEL-28 = tested on: SK-MEL-28
SK-OV-3 = tested on: SK-OV-3
MOLT-4 = tested on: MOLT-4
IGROV-1 = tested on: IGROV-1
SNB-19 = tested on: SNB-19
DU-145 = tested on: DU-145
HCT-15 = tested on: HCT-15
SW-620 = tested on: SW-620
SK-MEL-5 = tested on: SK-MEL-5
HCC 2998 = tested on: HCC 2998
NCI/ADR-RES = tested on: NCI/ADR-RES
RXF 393 = tested on: RXF 393
HL-60 = tested on: HL-60
NCI-H226 = tested on: NCI-H226
BT-549 = tested on: BT-549
NCI-H522 = tested on: NCI-H522
Hs-578T = tested on: Hs-578T
NCI-H460 = tested on: NCI-H460
A498 = tested on: A498
U-251 = tested on: U-251
LOX IMVI = tested on: LOX IMVI
SF-539 = tested on: SF-539
MDA-N = tested on: MDA-N
MDA-MB-435 = tested on: MDA-MB-435
SN12C = tested on: SN12C
SF-295 = tested on: SF-295
HT-29 = tested on: HT-29
OVCAR-4 = tested on: OVCAR-4
NCI-H23 = tested on: NCI-H23
CAKI-1 = tested on: CAKI-1
MCF7 = tested on: MCF7
M14 = tested on: M14
SK-MEL-2 = tested on: SK-MEL-2
PC-3 = tested on: PC-3
Malme-3M = tested on: Malme-3M
HOP-92 = tested on: HOP-92
SR = tested on: SR
K562 = tested on: K562
RPMI-8226 = tested on: RPMI-8226
MDA-MB-231 = tested on: MDA-MB-231
OVCAR-5 = tested on: OVCAR-5

In the case of `COc1ccc(Br)c(/C=N\c2cccc3cc(OC)c(OC)cc23)c1`, the GI50 (UO-31) is reported as 21.5 µM (inactive), the GI50 (TK-10) is reported as 28.1 µM (inactive) and the GI50 (CCRF-CEM) is reported as 2.82 µM (inactive). For the same compound, the GI50 (786-0) was 13.7 µM (inactive), the GI50 (SF-268) was 7 µM (inactive) and the GI50 (HOP-62) was 9.64 µM (inactive). For the same compound, the GI50 (HCT-116) was 4.35 µM (inactive), the GI50 (OVCAR-8) was 6.28 µM (inactive) and the GI50 (ACHN) was 25.5 µM (inactive). For the same compound, the GI50 (T47D) was 58.5 µM (inactive), the GI50 (A549) was > 91.2 µM (inactive) and the GI50 (UACC-257) was 69.8 µM (inactive). For the same compound, the GI50 (COLO 205) was 79.3 µM (inactive), the GI50 (EKVX) was 97.1 µM (inactive) and the GI50 (OVCAR-3) was 9.12 µM (inactive). The GI50 (UACC-62) was 10.3 µM (inactive), the GI50 (KM12) was 21.1 µM (inactive) and the GI50 (SNB-75) was 38.8 µM (inactive). The GI50 (SK-MEL-28) was 13.3 µM (inactive), the GI50 (SK-OV-3) was 55.1 µM (inactive) and the GI50 (MOLT-4) was 4.81 µM (inactive). For the same compound, the GI50 (IGROV-1) was 25.8 µM (inactive), the GI50 (SNB-19) was 13.2 µM (inactive) and the GI50 (DU-145) was 52.1 µM (inactive). The GI50 (HCT-15) was 2.47 µM, the GI50 (SW-620) was 7.08 µM (inactive) and the GI50 (SK-MEL-5) was 17.5 µM (inactive). The GI50 (HCC 2998) was 28.4 µM (inactive), the GI50 (NCI/ADR-RES) was 16.8 µM (inactive) and the GI50 (RXF 393) was 39.1 µM (inactive). For the same compound, the GI50 (HL-60) was 0.865 µM (active), the GI50 (NCI-H226) was 39 µM (inactive) and the GI50 (BT-549) was 8.3 µM (inactive). The GI50 (NCI-H522) was > 61.1 µM (inactive), the GI50 (Hs-578T) was 5.21 µM (inactive) and the GI50 (NCI-H460) was 35.5 µM (inactive). The GI50 (A498) was > 78.5 µM (inactive), the GI50 (U-251) was 2.99 µM (inactive) and the GI50 (LOX IMVI) was 4.57 µM (inactive). The GI50 (SF-539) was 2.64 µM (inactive), the GI50 (MDA-N) was 3.44 µM (inactive) and the GI50 (MDA-MB-435) was 2.8 µM (inactive). For the same compound, the GI50 (SN12C) was 12.8 µM (inactive), the GI50 (SF-295) was 12.8 µM (inactive) and the GI50 (HT-29) was 20 µM (inactive). For the same compound, the GI50 (OVCAR-4) was 40.6 µM (inactive), the GI50 (NCI-H23) was 32.8 µM (inactive) and the GI50 (CAKI-1) was > 82.4 µM (inactive). The GI50 (MCF7) was 2.33 µM (inactive), the GI50 (M14) was 3.84 µM (inactive) and the GI50 (SK-MEL-2) was 42.3 µM (inactive). The GI50 (PC-3) was 11.1 µM (inactive), the GI50 (Malme-3M) was 34 µM (inactive) and the GI50 (HOP-92) was 20.2 µM (inactive). The GI50 (SR) was 2.42 µM (inactive), the GI50 (K562) was 3.52 µM (inactive) and the GI50 (RPMI-8226) was 3.44 µM (inactive). For the same compound, the GI50 (MDA-MB-231) was 15.5 µM (inactive) and the GI50 (OVCAR-5) was 72.1 µM (inactive).

In the case of `COC(=O)c1c(O)ccc2c1c1c(n2Cc2ccc(Cl)cc2Cl)C(=O)c2ccccc2C1=O`, the GI50 (UO-31) is reported as 10.5 µM (inactive), the GI50 (TK-10) is reported as 14.9 µM (inactive) and the GI50 (CCRF-CEM) is reported as 4.12 µM (inactive). The GI50 (786-0) was 10.1 µM (inactive), the GI50 (SF-268) was 10.1 µM (inactive) and the GI50 (HOP-62) was 9.18 µM (inactive). The GI50 (HCT-116) was 3.91 µM (inactive), the GI50 (OVCAR-8) was 8.99 µM (inactive) and the GI50 (ACHN) was 7.85 µM (inactive). For the same compound, the GI50 (T47D) was 1.97 µM (inactive), the GI50 (A549) was 5.62 µM (inactive) and the GI50 (UACC-257) was 15.2 µM (inactive). The GI50 (COLO 205) was 11.2 µM (inactive), the GI50 (EKVX) was 10.4 µM (inactive) and the GI50 (OVCAR-3) was 6.37 µM (inactive). The GI50 (KM12) was 3.41 µM (inactive), the GI50 (SNB-75) was 17.9 µM (inactive) and the GI50 (SK-MEL-28) was 16.2 µM (inactive). For the same compound, the GI50 (SK-OV-3) was 14.3 µM (inactive), the GI50 (MOLT-4) was 2.27 µM (inactive) and the GI50 (IGROV-1) was 11.2 µM (inactive). The GI50 (SNB-19) was 15.7 µM (inactive), the GI50 (DU-145) was 11.6 µM (inactive) and the GI50 (HCT-15) was 5.56 µM. The GI50 (SW-620) was 13.4 µM (inactive), the GI50 (SK-MEL-5) was 13.7 µM (inactive) and the GI50 (HCC 2998) was 3.48 µM (inactive). The GI50 (NCI/ADR-RES) was 10.7 µM (inactive), the GI50 (RXF 393) was 4.09 µM (inactive) and the GI50 (HL-60) was 13.8 µM (inactive). The GI50 (NCI-H226) was 10.9 µM (inactive), the GI50 (BT-549) was 13.2 µM (inactive) and the GI50 (NCI-H522) was 7.46 µM (inactive). The GI50 (Hs-578T) was 9.62 µM (inactive), the GI50 (NCI-H460) was 3.27 µM (inactive) and the GI50 (A498) was 18.1 µM (inactive). The GI50 (U-251) was 10.8 µM (inactive), the GI50 (LOX IMVI) was 12.7 µM (inactive) and the GI50 (SF-539) was 14.4 µM (inactive). For the same compound, the GI50 (MDA-N) was 12.1 µM (inactive), the GI50 (MDA-MB-435) was 7.91 µM (inactive) and the GI50 (SN12C) was 2.21 µM (inactive). For the same compound, the GI50 (SF-295) was 11.8 µM (inactive), the GI50 (HT-29) was 17.6 µM (inactive) and the GI50 (OVCAR-4) was 1.95 µM (inactive). The GI50 (NCI-H23) was 10.5 µM (inactive), the GI50 (CAKI-1) was 12.2 µM (inactive) and the GI50 (MCF7) was 4.09 µM (inactive). The GI50 (M14) was 14.1 µM (inactive), the GI50 (SK-MEL-2) was 14.2 µM (inactive) and the GI50 (PC-3) was 7.74 µM (inactive). The GI50 (Malme-3M) was 16 µM (inactive), the GI50 (HOP-92) was 12.2 µM (inactive) and the GI50 (SR) was 3.44 µM (inactive). The GI50 (K562) was 5.9 µM (inactive), the GI50 (RPMI-8226) was 2.88 µM (inactive) and the GI50 (MDA-MB-231) was 10.9 µM (inactive). For the same compound, the GI50 (OVCAR-5) was 19.5 µM (inactive).
